Patent publication US20190247340A1, “EPILEPSY TREATMENT EMPLOYING KETOGENIC COMPOUNDS WHICH ARREST APOPTOSIS” (priority 2004, published 2019)
“And” between values parts separate entries of the source, which are not always exact repeats. Identical values can stand only once.

Tested on: CA1 region of hippocampal organotypic cultures
Assay: Kainic acid-induced neuronal cell death (experimental status epilepticus), propidium iodide uptake in hippocampal organotypic cultures
Assay type: cell-based, rat
Method: A seizure-induced neuronal cell death in vitro experimental model of status epilepticus was provided as follows. The neuroprotective potential of (R)-3-hydroxybutyrate sodium salt (BHB) (0.3 mM, 1 mM and 3 mM) was assessed by propidium iodide uptake into hippocampal organotypic cultures administered 1 μM KA for 24 h to induce experimental status epilepticus. Neuronal cell death is already observed at 24 h subsequent to KA-application therefore, it was of no value to administer to the cultures at this time-point. Test compound was, therefore, added to the cultures before significant neuronal cell death occurred.
Hippocampal organotypic slice cultures were prepared according to the Gähwiler roller-tube method (Gähwiler B H (1981) and Gähwiler et al (1997)) from nine rat pups aged between […].
Rat pups were killed by cervical dislocation, their brains rapidly removed and placed in a Petri dish. The meninges were removed from the caudal section of the cortex and then the brain was located with the ventral surface uppermost. Two transverse cuts were made, the first, at the level of the cerebellum to remove the brainstem, and the second, at the level of the optic chiasm to remove the forebrain. The cerebellum, midbrain and hindbrain were lifted upwards from the surrounding cortical tissue leaving one hippocampus embedded within each cortical hemisphere. An incision was made down the midline to separate the two cortical hemispheres. To separate the hippocampus from the surrounding cortical tissue three incisions were made around the hippocampus and then it was rolled out from the underlying tissue. The isolated hippocampus was then placed in a drop of ice-cold Gey's balanced salt solution containing 0.5% D-glucose (GBSS+G). The procedure was then repeated to isolate the remaining hippocampus. The whole procedure was performed using a Swift dissecting microscope and took between 10-15 mins thereby minimizing tissue deterioration.
The hippocampi were transferred to a Mcllwain tissue chopper and sectioned into a series of 400 μm thick slices. After sectioning, the hippocampi were placed in ice-cold GBSS+G and the slices gently teased apart. The slices were washed once in GBSS+G and the integrity of the slices checked under a higher magnification. If the slices had any tears, an opaque appearance or the cell body layers were not easily visible, they were discarded. A healthy slice has a yellow-brown colouration without any blackening in the cell body regions.
To adhere the hippocampal slice to a coverslip (Agar Scientific, UK), 20 μl of chicken plasma was placed in the middle of the coverslip followed by a hippocampal slice. The plasma was spread thinly over the surface of the coverslip, to ensure the slice was well coated. Then, 30 μl of thrombin (75 units/ml activity) was placed over the slice and mixed thoroughly with the chicken plasma. The plasma-thrombin mixture was left for approximately 60 s until a clot of jelly-like consistency had formed. The coverslip was then placed in a test-tube (Nunclon, UK) which contained 750 μl of pre-warmed culture media (37° C.). Culture media consisted of 50% basal media Earles, 25% Hank's balanced salt solution, 25% heat inactivated horse serum, […] L-glutamine and 0.5% D-glucose. The test tubes were sealed with a screw top lid and placed in a custom made roller-drum (Medical School Workshop, University of Nottingham) at an angle of 5°, rotating at 10 revolutions per hour in a dry incubator at 37° C.
After 48 h in vitro, 500 μl of media was removed and the cultures were incubated in culture media containing a combination of anti-mitotics, which consisted of 5-fluorodeoxyuridine, cytosine-β-D-arabino-furanoside (ARA-C) and uridine each at a concentration of 1 μM. After a further 24 h, 500 μl of media was removed and replaced with 500 μl of new culture media containing no anti-mitotics. […]

SMILES | percentage propidium iodide uptake (mean) (KA 1 μM alone for 24 h, then washout, assessed at 7 d, n=12, control cultures 1.81) | percentage propidium iodide uptake (mean) (KA 1 μM alone for 24 h, assessed at 24 h, n=12, control cultures 1.68) | percentage propidium iodide uptake (mean) (KTX0101 0.3 mM added 30 mins after KA 1 μM, assessed at 24 h, n=12) | percentage propidium iodide uptake (mean) (KTX0101 0.3 mM for 7 d following KA 1 μM for 24 h, assessed at 7 d, n=12) | percentage propidium iodide uptake (mean) (KTX0101 0.3 mM for 7 d following KA 1 μM for 24 h, assessed at 7 d, n=12, listed as BHB) | percentage propidium iodide uptake (mean) (KTX0101 1.0 mM added 30 mins after KA 1 μM, assessed at 24 h, n=13) | percentage propidium iodide uptake (mean) (KTX0101 1.0 mM for 7 d following KA 1 μM for 24 h, assessed at 7 d, n=13) | percentage propidium iodide uptake (mean) (KTX0101 1.0 mM for 7 d following KA 1 μM for 24 h, assessed at 7 d, n=13, listed as BHB) | percentage propidium iodide uptake (mean) (KTX0101 3.0 mM added 30 mins after KA 1 μM, assessed at 24 h, n=13) | percentage propidium iodide uptake (mean) (KTX0101 3.0 mM for 7 d following KA 1 μM for 24 h, assessed at 7 d, n=13) | percentage propidium iodide uptake (mean) (KTX0101 3.0 mM for 7 d following KA 1 μM for 24 h, assessed at 7 d, n=13, listed as BHB)
C=C(C)[C@H]1CN[C@H](C(=O)O)[C@H]1CC(=O)O [KA, kainic acid, reference compound] | 6.97±2.03% and 6.97% | 8.89±1.78% and 8.89% |  |  |  |  |  |  |  |  | 
C[C@@H](O)CC(=O)[O-].[Na+] [KTX0101, sodium salt of (R)-3-hydroxybutyrate] |  |  | 6.48% | 1.54% | 1.54±0.33% and 1.54% | 4.89% | 1.05% | 1.05±0.29% and 1.05% | 4.72% | 1.25% | 1.25±0.21% and 1.25%
